Source: PubChem BioAssay AID1919017 (Molecular Pharmacology Branch, DTP, NCI, 2023)
Several values for one entry are separate records, joined by “and”; a condition that tells them apart may be missing. Equal values may be shown once.

Tested on: SW1271 complex spheroids with HUVEC/MSC, growth, % test/control
Assay: Anticancer human tumor SW1271 cell line growth inhibition [AhR];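 note: spheroids exposed to agents for 7 days before readout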
Conditions: for viability, T/C: stronger effect = lower value
How it was run: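 Agents were dosed in half-log steps down from roughly clinical Cmax, or from 10 microM where Cmax was unknown, alone and with AhR antagonists. Read-out: percent test/control growth of tumor spheroids containing HUVEC and MSC stromal cells.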

[1] = curve of first compound, second compound 0.1 µM
[2] = curve of first compound, second compound 0.316 µM
[3] = curve of first compound, second compound 1 µM
[4] = curve of first compound, second compound 3.16 µM
[5] = curve of first compound, second compound 10 µM
[6] = second compound 0.1 µM, first compound 0.0316 µM
[7] = second compound 0.1 µM, first compound 0.1 µM
[8] = second compound 0.1 µM, first compound 0.316 µM
[9] = second compound 0.1 µM, first compound 1 µM
[10] = second compound 0.1 µM, first compound 3.16 µM
[11] = second compound 0.1 µM, first compound 10 µM
[12] = second compound 0.316 µM, first compound 0.0316 µM
[13] = second compound 0.316 µM, first compound 0.1 µM
[14] = second compound 0.316 µM, first compound 0.316 µM
[15] = second compound 0.316 µM, first compound 1 µM
[16] = second compound 0.316 µM, first compound 3.16 µM
[17] = second compound 0.316 µM, first compound 10 µM
[18] = second compound 1 µM, first compound 0.0316 µM
[19] = second compound 1 µM, first compound 0.1 µM
[20] = second compound 1 µM, first compound 0.316 µM
[21] = second compound 1 µM, first compound 1 µM
[22] = second compound 1 µM, first compound 3.16 µM
[23] = second compound 1 µM, first compound 10 µM
[24] = second compound 3.16 µM, first compound 0.0316 µM
[25] = second compound 3.16 µM, first compound 0.1 µM
[26] = second compound 3.16 µM, first compound 0.316 µM
[27] = second compound 3.16 µM, first compound 1 µM
[28] = second compound 3.16 µM, first compound 3.16 µM
[29] = second compound 3.16 µM, first compound 10 µM
[30] = second compound 10 µM, first compound 0.0316 µM
[31] = second compound 10 µM, first compound 0.1 µM
[32] = second compound 10 µM, first compound 0.316 µM
[33] = second compound 10 µM, first compound 1 µM
[34] = second compound 10 µM, first compound 3.16 µM
[35] = second compound 10 µM, first compound 10 µM

Row | SMILES | IC50 [1] [nM] | IC50 [2] [nM] | IC50 [3] [nM] | IC50 [4] [nM] | IC50 [5] [nM] | viability, T/C [6] [%] | viability, T/C [7] [%] | viability, T/C [8] [%] | viability, T/C [9] [%] | viability, T/C [10] [%] | viability, T/C [11] [%] | viability, T/C [12] [%] | viability, T/C [13] [%] | viability, T/C [14] [%] | viability, T/C [15] [%] | viability, T/C [16] [%] | viability, T/C [17] [%] | viability, T/C [18] [%] | viability, T/C [19] [%] | viability, T/C [20] [%] | further results
1 | Nc1ccn(C2OC(CO)C(O)C2(F)F)c(=O)n1 (configuration not stated) + Cc1ccccc1N=Nc1ccc(NC(=O)c2ccnn2C)c(C)c1 | < 31.6 | 66.1 | < 31.6 | < 31.6 | 335 | 39.2 | 48.4 | 47.2 | 52.8 | 41.3 | 37.2 | 54.6 | 49.8 | 41.8 | 39.5 | 39 | 45.1 | 41.1 | 50.1 | 56.7 | viability, T/C [21]: 41.5%; viability, T/C [22]: 45.6%; viability, T/C [23]: 40.3%; viability, T/C [24]: 43.2%; viability, T/C [25]: 51%; viability, T/C [26]: 40.7%; viability, T/C [27]: 44.2%; viability, T/C [28]: 39.7%; viability, T/C [29]: 48.5%; viability, T/C [30]: 56.5%; viability, T/C [31]: 57.3%; viability, T/C [32]: 50.2%; viability, T/C [33]: 43.1%; viability, T/C [34]: 44.7%; viability, T/C [35]: 50.4%
2 | COc1ccc([C@@H](O)c2cc(-c3ncnc4cc(N5CCOCC5)ccc34)c(F)cc2Cl)nn1 + CC(CO)NC(=O)c1cc(-c2ccc(Cl)cc2)nn(-c2cnn(C)c2)c1=O | 2690 | 1900 | 1410 | 1480 | 931 | 83.9 | 96.4 | 90.9 | 66.5 | 49.6 | 28 | 101 | 91.4 | 77.3 | 58.6 | 43.1 | 33.2 | 103 | 108 | 78.6 | viability, T/C [21]: 55.8%; viability, T/C [22]: 40.6%; viability, T/C [23]: 29.6%; viability, T/C [24]: 92.2%; viability, T/C [25]: 80.4%; viability, T/C [26]: 68.3%; viability, T/C [27]: 56.3%; viability, T/C [28]: 39.2%; viability, T/C [29]: 36.5%; viability, T/C [30]: 84%; viability, T/C [31]: 76.9%; viability, T/C [32]: 59.8%; viability, T/C [33]: 50.3%; viability, T/C [34]: 38%; viability, T/C [35]: 29.1%
3 | CC1COCCN1c1cc(C2(S(C)(=N)=O)CC2)nc(-c2ccnc3[nH]ccc23)n1 (configuration not stated) |  |  |  |  |  |  |  |  |  |  |  |  |  |  |  |  |  |  |  |  | viability, T/C (compound 0.0316 µM): 106% and 99.7% and 91.9%; viability, T/C (compound 0.1 µM): 85.4% and 106% and 103%; viability, T/C (compound 0.316 µM): 87.8% (2×) and 79.2%; viability, T/C (compound 1 µM): 77.5% and 84% and 73.8%; viability, T/C (compound 3.16 µM): 80.1% and 69.6% and 68.8%; viability, T/C (compound 10 µM): 59.5% and 70.1% and 51.9%; IC50 (curve of compound): > 10000 nM
4 | O=C(c1cc(Cc2n[nH]c(=O)c3ccccc23)ccc1F)N1CCN(C(=O)C2CC2)CC1 + Cc1cncc(-c2nc(NCCc3c[nH]c4ccccc34)c3ncn(C(C)C)c3n2)c1 | > 10000 | > 10000 | > 10000 | > 10000 | < 31.6 | 74.1 | 75.8 | 83.6 | 75.6 | 102 | 100 | 84.9 | 94.2 | 95.5 | 83.7 | 90.2 | 91.4 | 84.9 | 91.2 | 79.3 | viability, T/C [21]: 80.2%; viability, T/C [22]: 81.7%; viability, T/C [23]: 75.8%; viability, T/C [24]: 90.7%; viability, T/C [25]: 78.7%; viability, T/C [26]: 96.6%; viability, T/C [27]: 75.6%; viability, T/C [28]: 62.9%; viability, T/C [29]: 80.1%; viability, T/C [30]: 50.1%; viability, T/C [31]: 46.4%; viability, T/C [32]: 46.4%; viability, T/C [33]: 33.3%; viability, T/C [34]: 44.9%; viability, T/C [35]: 34.7%
5 | O=C(C=Cc1cccc(S(=O)(=O)Nc2ccccc2)c1)NO + Cc1ccccc1N=Nc1ccc(NC(=O)c2ccnn2C)c(C)c1 | 941 | 1430 | 763 | 1550 | 1860 | 86 | 87.1 | 61.9 | 54.3 | 26.5 | 17.8 | 84.3 | 91 | 64.6 | 59.8 | 35.5 | 18.9 | 105 | 98.6 | 68.5 | viability, T/C [21]: 48.1%; viability, T/C [22]: 23.1%; viability, T/C [23]: 28.4%; viability, T/C [24]: 84.4%; viability, T/C [25]: 94%; viability, T/C [26]: 86.8%; viability, T/C [27]: 57.5%; viability, T/C [28]: 36.7%; viability, T/C [29]: 22.3%; viability, T/C [30]: 104%; viability, T/C [31]: 71.2%; viability, T/C [32]: 88.2%; viability, T/C [33]: 57.6%; viability, T/C [34]: 38.3%; viability, T/C [35]: 26.1%
